# Reference: publication PMC6158709, “Chemical genetic inhibition of DEAD-box proteins using covalent complementarity” (Nucleic Acids Research, 2018)
# Tests used:
# DDX3 (132-607) = target: T1, DDX3 (132-607) (Homo sapiens, UniProt O00571); assay: coupled ATPase assay, RNA-dependent; format: biochemical; settings: duplex RNA; four ATP concentrations
# T1 construct: gene DDX3X; helicase core, residues 132-607, recombinant, purified as previously described
# DDX3 (132-406) = target: T2, DDX3 (132-406) (Homo sapiens, UniProt O00571); assay: differential scanning fluorimetry; format: binding; settings: saturating AMP; 4 μM protein, pH 7.5, 5 mM MgCl2
# T2 construct: gene DDX3X; truncated, residues 132-406, recombinant, purified as previously described
# T2 sequence (O00571 132-406): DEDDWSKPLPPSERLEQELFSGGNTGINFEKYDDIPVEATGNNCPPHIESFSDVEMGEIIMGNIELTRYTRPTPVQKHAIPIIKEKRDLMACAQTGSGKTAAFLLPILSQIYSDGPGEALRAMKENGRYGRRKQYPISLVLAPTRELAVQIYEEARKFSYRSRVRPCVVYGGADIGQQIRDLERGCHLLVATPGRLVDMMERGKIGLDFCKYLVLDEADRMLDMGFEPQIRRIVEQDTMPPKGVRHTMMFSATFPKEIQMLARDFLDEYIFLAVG
# HA-eIF4A^ES = target: T3, HA-eIF4A^ES (Saccharomyces cerevisiae, UniProt P10081); assay: competition of N-propargylmaleimide labelling, click TAMRA, in gel fluorescence after HA immunoprecipitation; format: biochemical; settings: covalent; yeast lysate, 10 μM AMP-acrylate followed by 10 μM NPM
# T3 construct: gene TIF1; HA-tagged ES mutant in yeast lysate, immunoprecipitated after labelling
# T3 sequence (P10081 2-395): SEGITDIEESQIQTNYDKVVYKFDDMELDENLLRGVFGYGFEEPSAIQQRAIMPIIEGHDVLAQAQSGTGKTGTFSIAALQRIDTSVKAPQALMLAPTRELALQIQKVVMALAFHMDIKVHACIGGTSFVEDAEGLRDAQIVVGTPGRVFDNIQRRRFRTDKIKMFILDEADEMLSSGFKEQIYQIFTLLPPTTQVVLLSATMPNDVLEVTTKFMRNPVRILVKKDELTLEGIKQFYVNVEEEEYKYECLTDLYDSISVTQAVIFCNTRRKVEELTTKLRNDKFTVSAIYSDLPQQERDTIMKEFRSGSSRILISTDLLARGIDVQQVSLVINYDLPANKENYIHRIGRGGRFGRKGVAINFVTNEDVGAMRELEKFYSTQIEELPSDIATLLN
# Dbp2 = target: T4, Dbp2 (Saccharomyces cerevisiae, UniProt P24783, S161C); assay: RNA duplex unwinding assay; format: biochemical; settings: covalent; 0.5 μM enzyme, 2 mM ATP/MgCl2, pH 7.5, 5 min pre-incubation
# T4 construct: full-length, expressed in E. coli BL21 (DE3) as 6xHis-SUMO fusion, incubated with SUMO protease
# T4 sequence (P24783 whole entry S161C, the tested form may be a part): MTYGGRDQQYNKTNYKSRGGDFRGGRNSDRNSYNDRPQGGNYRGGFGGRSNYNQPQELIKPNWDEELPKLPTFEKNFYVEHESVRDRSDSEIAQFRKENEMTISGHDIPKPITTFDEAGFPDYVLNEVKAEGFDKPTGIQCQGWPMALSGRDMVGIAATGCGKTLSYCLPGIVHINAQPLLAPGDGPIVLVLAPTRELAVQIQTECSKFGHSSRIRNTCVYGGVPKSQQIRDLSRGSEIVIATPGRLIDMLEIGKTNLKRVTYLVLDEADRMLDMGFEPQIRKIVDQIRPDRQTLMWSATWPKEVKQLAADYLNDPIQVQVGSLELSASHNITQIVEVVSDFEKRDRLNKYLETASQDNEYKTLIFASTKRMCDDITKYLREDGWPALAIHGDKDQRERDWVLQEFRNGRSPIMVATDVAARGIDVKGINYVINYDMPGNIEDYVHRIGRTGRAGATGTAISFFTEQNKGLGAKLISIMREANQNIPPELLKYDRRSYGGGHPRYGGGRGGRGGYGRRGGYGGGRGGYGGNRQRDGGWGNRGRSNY
# T1 sequence (O00571 132-607): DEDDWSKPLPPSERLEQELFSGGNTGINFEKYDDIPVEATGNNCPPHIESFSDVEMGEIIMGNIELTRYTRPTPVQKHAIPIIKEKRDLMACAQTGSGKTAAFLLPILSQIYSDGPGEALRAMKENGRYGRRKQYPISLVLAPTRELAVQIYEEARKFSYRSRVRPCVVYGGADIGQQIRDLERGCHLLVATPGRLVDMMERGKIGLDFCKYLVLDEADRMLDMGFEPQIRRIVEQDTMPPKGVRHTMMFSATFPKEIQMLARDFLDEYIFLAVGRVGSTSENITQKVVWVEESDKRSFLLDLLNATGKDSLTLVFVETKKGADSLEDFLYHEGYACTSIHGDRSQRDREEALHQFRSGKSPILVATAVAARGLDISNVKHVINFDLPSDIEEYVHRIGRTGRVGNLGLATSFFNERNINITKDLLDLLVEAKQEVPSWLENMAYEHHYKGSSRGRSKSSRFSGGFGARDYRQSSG
compound,measurement,setting,value
Nc1ncnc2c1ncn2[C@@H]1O[C@H](COP(=O)(O)OP(=O)(O)OP(=O)(O)O)[C@@H](O)[C@H]1O [ATP],"coupled ATPase assay, RNA-dependent",DDX3 (132-607),both DDX3^WT and DDX3^ES hydrolyzed ATP in the presence of duplex RNA
Nc1ncnc2c1ncn2[C@@H]1O[C@H](COP(=O)(O)O)[C@@H](O)[C@H]1O [AMP],Tm,DDX3 (132-406),Saturating concentrations of AMP stabilizes DDX3^WT and DDX3^ES to the same extent
C=CC(=O)OP(=O)(O)OC[C@H]1O[C@@H](n2cnc3c(N)ncnc32)[C@H](O)[C@@H]1O [AMP-acrylate],NPM labeling,HA-eIF4A^ES,labeling of HA-eIF4A^ES by NPM is competed by AMP-acrylate treatment
same,fraction of RNA duplex unwound,Dbp2,duplex unwinding by ES Dbp2 (S161C) is reduced by AMP-acrylate
